Measured values as given in US10280159B2 (AbbVie Deutschland GmbH & Co. KG, priority 2015, dated 2019).
pEC50: −log10 of the molar value.

Assays:
Assay type in all cases: cell-based
[1] = target: T1, human S1PR3 (Homo sapiens, UniProt Q99500); assay: Intracellular Ca2+ release (FLIPR) agonist potency, S1P3; conditions: recombinant CHO-K1 cells expressing human S1PR3, aequorin, Gq/i5; Calcium 5 FLIPR; read-out: S1P3 EC50
T1 construct: host or cells: CHO-K1
Method: Agonistic activity was measured using the method described below.
Intracellular Ca^2+ Release
Agonist potency and intrinsic activity was assessed by measurement of intracellular Ca^2+ release. Recombinant CHO-K1 cells (Euroscreen, Brussels, Belgium) expressing human S1PR5, S1PR1, S1PR3 or S1PR4 receptors, aequorin, and GTP binding protein Gq/i5 were cultured using a medium containing nutrient mixture F-12 Ham (Sigma-Aldrich) with 10% FBS, and 100 μg/mL gentamicin and equilibrated at 5% CO2.
Phospho-fingolimod was used as positive control. Antagonists were pre-incubated for 10 min with cells before addition of the agonist (phospho-fingolimod at EC80). Measurements were performed using a fluorometric imaging plate reader FLIPR®tetra (Molecular Devices). Agonist at the human S1P receptors were characterized by deducing EC50 (potency) values from a nonlinear fit to the measured fluorescence raw data after normalization to the reference agonist (phospho-fingolimod) curve.

[2] = target: T2, human S1PR1 (Homo sapiens, UniProt P21453); assay: Intracellular Ca2+ release (FLIPR) agonist potency, S1P1; conditions: recombinant CHO-K1 cells expressing human S1PR1, aequorin, Gq/i5; Calcium 5 FLIPR; read-out: S1P1 EC50
T2 construct: host or cells: CHO-K1
How it was run: (§1)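 Readout: FLIPR fluorescence of intracellular Ca2+ release in CHO-K1 cells co-expressing receptor, aequorin and Gq/i5. Data were normalized to the phospho-fingolimod curve; EC50 from nonlinear fit. Phospho-fingolimod served as positive control.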

[3] = target: T3, human S1PR5 (Homo sapiens, UniProt Q9H228); assay: Intracellular Ca2+ release (FLIPR) agonist potency, S1P5; conditions: recombinant CHO-K1 cells expressing human S1PR5, aequorin, Gq/i5; Calcium 5 FLIPR; read-out: S1P5 EC50 range
T3 construct: host or cells: CHO-K1
How it was run: as §1

[4] = target: T4, human S1PR4 (Homo sapiens, UniProt O95977); assay: Intracellular Ca2+ release (FLIPR) agonist potency, S1P4; conditions: recombinant CHO-K1 cells expressing human S1PR4, aequorin, Gq/i5; Calcium 5 FLIPR; read-out: S1P4 EC50
T4 construct: host or cells: CHO-K1
T4 sequence (O95977 1-384): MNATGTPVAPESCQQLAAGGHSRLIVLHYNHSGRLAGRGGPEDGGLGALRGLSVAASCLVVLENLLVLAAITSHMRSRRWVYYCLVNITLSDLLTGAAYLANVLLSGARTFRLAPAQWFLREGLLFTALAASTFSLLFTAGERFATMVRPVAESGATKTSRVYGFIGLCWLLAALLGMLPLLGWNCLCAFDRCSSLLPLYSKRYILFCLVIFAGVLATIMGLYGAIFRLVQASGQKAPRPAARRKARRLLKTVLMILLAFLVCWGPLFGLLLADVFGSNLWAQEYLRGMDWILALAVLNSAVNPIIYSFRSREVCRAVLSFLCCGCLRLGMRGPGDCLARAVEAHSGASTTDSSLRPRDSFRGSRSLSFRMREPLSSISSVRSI
How it was run: as §1

T3 sequence (Q9H228 whole entry): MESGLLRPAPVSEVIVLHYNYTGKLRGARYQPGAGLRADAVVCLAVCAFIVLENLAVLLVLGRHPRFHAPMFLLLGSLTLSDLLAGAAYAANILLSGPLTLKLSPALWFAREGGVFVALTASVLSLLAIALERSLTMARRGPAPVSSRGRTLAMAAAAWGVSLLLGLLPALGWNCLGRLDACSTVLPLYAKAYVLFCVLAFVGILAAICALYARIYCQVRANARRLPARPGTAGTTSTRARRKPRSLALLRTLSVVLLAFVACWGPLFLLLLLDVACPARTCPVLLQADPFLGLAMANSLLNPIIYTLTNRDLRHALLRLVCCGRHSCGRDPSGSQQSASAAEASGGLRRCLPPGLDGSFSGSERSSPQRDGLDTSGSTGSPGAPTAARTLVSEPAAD
T2 sequence (P21453 whole entry): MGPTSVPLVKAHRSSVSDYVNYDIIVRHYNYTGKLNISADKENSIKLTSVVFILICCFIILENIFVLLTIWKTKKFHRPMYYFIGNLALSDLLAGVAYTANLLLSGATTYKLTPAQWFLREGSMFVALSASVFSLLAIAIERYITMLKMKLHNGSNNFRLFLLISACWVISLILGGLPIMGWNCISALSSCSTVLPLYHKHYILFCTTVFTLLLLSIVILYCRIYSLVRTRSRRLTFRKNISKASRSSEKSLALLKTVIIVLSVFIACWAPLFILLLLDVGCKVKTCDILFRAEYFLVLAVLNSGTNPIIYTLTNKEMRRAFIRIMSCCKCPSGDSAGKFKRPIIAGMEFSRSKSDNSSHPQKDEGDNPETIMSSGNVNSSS
T1 sequence (Q99500 whole entry): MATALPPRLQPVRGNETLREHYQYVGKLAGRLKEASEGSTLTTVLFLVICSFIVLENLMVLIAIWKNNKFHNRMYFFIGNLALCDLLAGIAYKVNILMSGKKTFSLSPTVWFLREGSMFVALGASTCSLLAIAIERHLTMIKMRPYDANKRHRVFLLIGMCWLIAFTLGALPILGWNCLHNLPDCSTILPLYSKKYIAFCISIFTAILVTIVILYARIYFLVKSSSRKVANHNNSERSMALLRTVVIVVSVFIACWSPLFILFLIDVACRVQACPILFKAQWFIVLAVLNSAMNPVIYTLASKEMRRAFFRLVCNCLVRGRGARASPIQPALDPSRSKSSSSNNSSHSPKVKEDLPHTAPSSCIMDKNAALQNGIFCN

| Structure (SMILES) | pEC50 [1] | pEC50 [2] | pEC50 [3] | pEC50 [4] |
| --- | --- | --- | --- | --- |
| O=C(O)CNC1COc2cc(OCc3c(Cl)cccc3Cl)ccc2C1 (centres unmarked) [Compound 35, 2-((7-((2,6-dichlorobenzyl)oxy)chroman-3-yl)amino)acetic acid] | < 6.00 | < 6.00 | 6.00 to 7.00 | > 6.00 |
| O=C(O)CCNC1CCc2cc(C#Cc3c(Cl)cccc3Cl)ccc2C1 (centres unmarked) [Compound 12, 3-((6-((2,6-dichlorophenyl)ethynyl)-1,2,3,4-tetrahydronaphthalen-2-yl)amino)propanoic acid] | < 6.00 | < 6.00 | > 8.00 | > 6.00 |
| O=C(O)CC1CN(C2CCc3cc(OCc4c(Cl)cccc4Cl)ccc3C2)C1 (centres unmarked) [Compound 78, 2-(1-(6-((2,6-dichlorobenzyl)oxy)-1,2,3,4-tetrahydronaphthalen-2-yl)azetidin-3-yl)acetic acid] | < 6.00 | < 6.00 | > 8.00 | > 6.00 |
| O=C(O)CNC1CCc2cc(C#Cc3cc(F)cc(F)c3)ccc2C1 (centres unmarked) [Compound 28, 2-((6-((3,5-difluorophenyl)ethynyl)-1,2,3,4-tetrahydronaphthalen-2-yl)amino)acetic acid] | < 6.00 | < 6.00 | > 8.00 | > 6.00 |
| O=C(O)[C@H]1C[C@@H](NC2CCc3cc(OCc4c(Cl)cccc4Cl)ccc3C2)C1 (some centres unmarked) [Compound 77, (1 s,3s)-3-((6-((2,6-dichlorobenzyl)oxy)-1,2,3,4-tetrahydronaphthalen-2-yl)amino)cyclobutanecarboxylic acid] | < 6.00 | > 6.00 | > 8.00 | > 6.00 |
| CN(CC(=O)O)C1COc2cc(-c3ccc(OCc4ccccc4)cc3)ccc2C1 (centres unmarked) [Compound 238, 2-((7-(4-(benzyloxy)phenyl)chroman-3-yl)(methyl)amino)acetic acid] | < 6.00 | > 6.00 | 7.00 to 8.00 | < 6.00 |
| CCc1cccc(F)c1COc1ccc2c(c1)OCC(N1CC(C(=O)O)C1)C2 (centres unmarked) [Compound 65, 1-(7-((2-ethyl-6-fluorobenzyl)oxy)chroman-3-yl)azetidine-3-carboxylic acid] | < 6.00 | < 6.00 | > 8.00 | > 6.00 |
| O=C(O)C1CN(C2COc3cc(C#Cc4cc(F)cc(F)c4)ccc3C2)C1 (centres unmarked) [Compound 27, 1-(7-((3,5-difluorophenyl)ethynyl)chroman-3-yl)azetidine-3-carboxylic acid] | < 6.00 | < 6.00 | > 8.00 | > 6.00 |
| O=C(O)C1CN(C2COc3cc(-c4ccc(OCc5cccc(F)c5F)cc4)ccc3C2)C1 (centres unmarked) [Compound 56, 1-(7-(4-((2,3-difluorobenzyl)oxy)phenyl)chroman-3-yl)azetidine-3-carboxylic acid] | < 6.00 | > 6.00 | 7.00 to 8.00 | < 6.00 |
| O=C(O)C1CN(C2COc3cc(OCc4cccc(Cl)c4)ccc3C2)C1 (centres unmarked) [Compound 24, 1-(7-((3-chlorobenzyl)oxy)chroman-3-yl)azetidine-3-carboxylic acid] | < 6.00 | < 6.00 | 5.00 to 6.00 | < 6.00 |
| O=C(O)COC1CCc2cc(OCc3cc(OC(F)(F)F)ccc3F)ccc2C1 (centres unmarked) [Compound 161, 2-[6-[[2-fluoro-5-(trifluoromethoxy)phenyl]methoxy]tetralin-2-yl]oxyacetic acid] | < 6.00 | < 6.00 | 7.00 to 8.00 | < 6.00 |

Further lines, results first:

| pEC50 [1] | pEC50 [2] | pEC50 [3] | pEC50 [4] | Structure (SMILES) |
| --- | --- | --- | --- | --- |
| < 6.00 | < 6.00 | > 8.00 | > 6.00 | O=C(O)C1CN(C2COc3cc(C#Cc4cc(F)ccc4F)ccc3C2)C1 (centres unmarked) [Compound 38, 1-(7-((2,5-difluorophenyl)ethynyl)chroman-3-yl)azetidine-3-carboxylic acid] |
| < 6.00 | < 6.00 | 7.00 to 8.00 | < 6.00 | O=C(O)C1CN(C2COc3cc(C#Cc4c(Cl)cccc4Cl)ccc3C2)C1 (centres unmarked) [Compound 44, 1-(7-((2,6-dichlorophenyl)ethynyl)chroman-3-yl)azetidine-3-carboxylic acid] |
| < 6.00 | < 6.00 | 7.00 to 8.00 | < 6.00 | O=C(O)C12CC(NC3COc4cc(OCc5c(Cl)cccc5Cl)ccc4C3)(C1)C2 (centres unmarked) [Compound 48, 3-((7-((2,6-dichlorobenzyl)oxy)chroman-3-yl)amino)-bicyclo[1.1.1]pentane-1-carboxylic acid] |
| < 6.00 | < 6.00 | > 8.00 | > 6.00 | CCc1cccc(Cl)c1COc1ccc2c(c1)OCC(NCC(=O)O)C2 (centres unmarked) [Compound 34, 2-((7-((2-chloro-6-ethylbenzyl)oxy)chroman-3-yl)amino)acetic acid] |
| < 6.00 | < 6.00 | 7.00 to 8.00 | < 6.00 | O=C(O)C1CN(C2COc3cc(C#Cc4ccccc4C(F)(F)F)ccc3C2)C1 (centres unmarked) [Compound 41, 1-(7-((2-(trifluoromethyl)phenyl)ethynyl)chroman-3-yl)azetidine-3-carboxylic acid] |
| < 6.00 | < 6.00 | 6.00 to 7.00 | < 6.00 | O=C(O)COC1CCc2cc(OCc3c(Cl)cccc3Cl)ccc2C1 (centres unmarked) [Compound 210, 2-[6-[(2,6-dichlorophenyl)methoxy]tetralin-2-yl]oxyacetic acid] |
| < 6.00 | < 6.00 | > 8.00 | > 6.00 | O=C(O)C1CN(C2COc3cc(OCc4c(Cl)cccc4C4CC4)ccc3C2)C1 (centres unmarked) [Compound 25, 1-(7-((2-chloro-6-cyclopropylbenzyl)oxy)chroman-3-yl)azetidine-3-carboxylic acid] |
| < 6.00 | > 6.00 | > 8.00 | > 6.00 | CCc1cccc(Cl)c1COc1ccc2c(c1)CCC(NCC(=O)O)C2 (centres unmarked) [Compound 73, 2-((6-((2-chloro-6-ethylbenzyl)oxy)-1,2,3,4-tetrahydronaphthalen-2-yl)amino)acetic acid] |
| < 6.00 | < 6.00 | > 8.00 | > 6.00 | O=C(O)CCNC1CCc2cc(C#Cc3cc(F)cc(F)c3)ccc2C1 (centres unmarked) [Compound 14, 3-((6-((3,5-difluorophenyl)ethynyl)-1,2,3,4-tetrahydronaphthalen-2-yl)amino)propanoic acid] |
| < 6.00 | < 6.00 | > 8.00 | > 6.00 | O=C(O)CNC1CCc2cc(C#Cc3c(Cl)cccc3Cl)ccc2C1 (centres unmarked) [Compound 29, 2-((6-((2,6-dichlorophenyl)ethynyl)-1,2,3,4-tetrahydronaphthalen-2-yl)amino)acetic acid] |
| < 6.00 | < 6.00 | 6.00 to 7.00 | < 6.00 | O=C(O)C1CN(C2COc3cc(OCc4ccc(Cl)cc4Cl)ccc3C2)C1 (centres unmarked) [Compound 68, 1-(7-((2,4-dichlorobenzyl)oxy)chroman-3-yl)azetidine-3-carboxylic acid] |
| < 6.00 | < 6.00 | > 8.00 | > 6.00 | CCc1cccc(Cl)c1COc1ccc2c(c1)OCC(N1CC(C(=O)O)C1)C2 (centres unmarked) [Compound 23, 1-(7-((2-chloro-6-ethylbenzyl)oxy)chroman-3-yl)azetidine-3-carboxylic acid] |
| < 6.00 | < 6.00 | > 8.00 | > 6.00 | O=C(O)CCNC1CCc2cc(/C=C/c3cccc(Cl)c3)ccc2C1 (centres unmarked) [Compound 20, (E)-3-((6-(3-chlorostyryl)-1,2,3,4-tetrahydronaphthalen-2-yl)amino)-propanoic acid] |
| < 6.00 | < 6.00 | > 8.00 | > 6.00 | O=C(O)CCNC1CCc2cc(OCc3ccccc3Cl)ccc2C1 (centres unmarked) [Compound 8, 3-((6-((2-chlorobenzyl)oxy)-1,2,3,4-tetrahydronaphthalen-2-yl)amino)propanoic acid] |
| < 6.00 | < 6.00 | 5.00 to 6.00 | < 6.00 | C=C(CN(Cc1c(Cl)cccc1CC)C1CCc2cc(OCc3c(Cl)cccc3CC)ccc2C1)C(=O)OC (centres unmarked) [Compound 22, Methyl 2-(((2-chloro-6-ethylbenzyl)(6-((2-chloro-6-ethylbenzyl)oxy)-1,2,3,4-tetrahydronaphthalen-2-yl)amino)methyl)acrylate] |
